Measurements as given in US5498632A, “Esters of acyl carnitines with long-chain aliphatic alcohols and pharmaceutical compositions containing same having antibacterial activity” (Sigma-Tau Industrie Farmaceutiche Riunite S.p.A., priority 1992, dated 1996).

Legend:
[1] = tested on: Helicobacter pylori NCTC 11637; test: MIC in agar (agar dilution); assay type: cell-based
Description: (§1) In this experiment the activity of ST 722 and ST 712 against Campylobacter and Helicobacter was investigated.
(§2) Campylobacter fetus ATCC 27374, Campylobacter coli LI 048, Campylobacter jejuni 84-ISS, and Helicobacter pylori NCTC 11637.
(§3) The culture medium was Columbia agar base supplemented with 7% (V/V) defribinated horse blood (DHB) for Campylobacter strains, and the same medium additioned with Vitox (Oxoid) for Helicobacter strain.
(§4) The Campylobacter and Helicobacter strains, preserved at -80° C. in DHB containing 10% (V/V) glycerol, were thawed and grown, in their respective culture medium, in culture flasks, which were incubated for 48 hours at 37° C. in a 10% CO2 atmosphere. After this first growth cycle, the bacteria were allowed to go through a second growth cycle in the same conditions as above.
The bacterial "patina" was then harvested by resuspension in 4-5 ml of Mueller-Hinton broth, the turbidity of which was then assessed according to Mc Farland's criteria (BRAY W. E., Clinical Laboratory Methods, 5th Ed. C. V. MOSBY, St. Louis, Mo. 1957). […]
(§5) With a Steers-type multipoint inoculator (STEERS E., FOLTZ E. L., GRAVES S., RIDEN J., 1959. Inocula-replicating apparatus for routine testing of antibacterial susceptibility to antibiotics. Antibiot. Chemoter. 9: 307-311) 1-μl volumes of the above standardized suspensions were spot-transferred into the wells of a 96-well microtiter plate, which had previously been filled with 0.2 ml/well of Mueller-Hinton agar 5% DHB, containing the test substances at different concentrations.
(§6) The plates was then incubated for 48/72 hours at 37° C. in a 10% CO2 atmosphere.

Gram- bacterial strains = test: Mean MIC in broth and resistant strain number, Gram- strains; assay type: cell-based; conditions: 18 h, read-out: Mean MIC values
Description: (§7) MICs were determined by a standard microdilution test, using serial two-fold dilutions of the substances in Mueller-Hinton broth.
(§8) The inoculum was prepared from an overnight culture in Mueller-Hinton broth matching the 0.5 Mc Farland (turbidity) standard (BRAY W. E., Clinical Laboratory Methods, 5th Ed. C. V. MOSBY, St. Louis, Mo. 1957), and was adjusted to a final concentration of 5.0×10^4 colony-forming units/ml.
(§9) Equal volumes (0.1 ml) of both bacterial suspensions and substance solutions were distributed in microtiter plates (Falcon, 96 wells, round bottom), and then placed in a humidified incubator (37° C.) for 18 hours.
(§10) Evaluation of the Minimal Inhibitory Concentration (MIC) in broth of 16 new substances for Gram- bacterial strains.
(§11) The following strains were used: Enterobacter (1), Escherichia (3), Klebsiella (3), Proteus (3); Pseudomonas (2); Salmonella (2), Serratia (1).

Escherichia coli (76 F) = test: MIC in broth, Gram- strains; assay type: cell-based; conditions: 18 h, E. coli (76 F), read-out: Minimal Inhibitory Concentration (MIC)
Description: as §7, §8, §9, §10, §11

[2] = tested on: Pseudomonas aeruginosa (10 E); test: MIC in broth, Gram- strains; assay type: cell-based; conditions: 18 h, read-out: Minimal Inhibitory Concentration (MIC)
Description: as §7, §8, §9, §10, §11

Escherichia coli (92 F) = test: MIC in broth, Gram- strains; assay type: cell-based; conditions: 18 h, E. coli (92 F), read-out: Minimal Inhibitory Concentration (MIC)
Description: as §7, §8, §9, §10, §11

[3] = tested on: Pseudomonas aeruginosa (3 E); test: MIC in broth, Gram- strains; assay type: cell-based; conditions: 18 h, read-out: Minimal Inhibitory Concentration (MIC)
Description: as §7, §8, §9, §10, §11

[4] = tested on: Salmonella typhimurium (D.S.); test: MIC in broth, Gram- strains; assay type: cell-based; conditions: Salmonella enterica, 18 h, read-out: Minimal Inhibitory Concentration (MIC)
Description: as §7, §8, §9, §10, §11

[5] = tested on: Serratia marcescens (A/1); test: MIC in broth, Gram- strains; assay type: cell-based; conditions: 18 h, read-out: Minimal Inhibitory Concentration (MIC)
Description: as §7, §8, §9, §10, §11

Klebsiella oxytoca (552) = test: MIC in broth, Gram- strains; assay type: cell-based; conditions: 18 h, read-out: Minimal Inhibitory Concentration (MIC)
Description: as §7, §8, §9, §10, §11

[6] = tested on: Enterobacter aerogenes (UM); test: MIC in broth, Gram- strains; assay type: cell-based; conditions: Klebsiella aerogenes, 18 h, read-out: Minimal Inhibitory Concentration (MIC)
Description: as §7, §8, §9, §10, §11

Proteus mirabilis (32) = test: MIC in broth, Gram- strains; assay type: cell-based; conditions: 18 h, read-out: Minimal Inhibitory Concentration (MIC)
Description: as §7, §8, §9, §10, §11

[7] = tested on: Klebsiella pneumoniae (7823); test: MIC in broth, Gram- strains; assay type: cell-based; conditions: 18 h, read-out: Minimal Inhibitory Concentration (MIC)
Description: as §7, §8, §9, §10, §11

Proteus vulgaris (UM) = test: MIC in broth, Gram- strains; assay type: cell-based; conditions: 18 h, read-out: Minimal Inhibitory Concentration (MIC)
Description: as §7, §8, §9, §10, §11

[8] = Assessment of behaviour and mortality in mice (Irwin's method); set-up: species or system mouse (male Crl:(CD-1)(ICR)BR); conditions: mouse, in vivo; oral, dose 1000, 4 animals/dose
Description: (§12) The assessment of normal behaviour in mice was carried out following S. Irwin's method (Psychopharmacologia, 13, 222 [1968]). This method allows alterations in some behavioural, neurophysiologic and neurovegetative parameters to be detected, which are directly observable by the researcher. The study was conducted using male Crl:(CD-1)(ICR)BR mice (Charles River--Italy) weighing 22-25 g, following oral administration of the compounds suspended in carboxymethylcellulose (0.5% by weight in H2 O) to groups of 4 animals/dose.
(§13) The animals were continously kept under observation for five hours following treatment and twice a day in the subsequent five days. Mortality was also observed during the overall test period.

mice = test: as above; set-up: species or system mouse (male Crl:(CD-1)(ICR)BR); conditions: mouse, in vivo, po
Description: as §12, §13

[9] = tested on: Campylobacter jejuni 84-ISS; test: MIC in agar (agar dilution); assay type: cell-based
Description: as §1, §2, §3, §4
(§14) The bacterial "patina" was then harvested by resuspension in 4-5 ml of Mueller-Hinton broth, the turbidity of which was then assessed according to Mc Farland's criteria (BRAY W. E., Clinical Laboratory Methods, 5th Ed. C. V. MOSBY, St. Louis, Mo. 1957).
(§15) The Helicobacter suspension was adjusted to an approximate concentration of 1.0×10^9 and 1.0×10^8 organisms/ml, while the Campylobacter suspension was adjusted to 1.0×10^7 and 1.0×10^6 organisms/ml.
as §5, §6

[10] = tested on: Campylobacter coli LI 048; test: MIC in agar (agar dilution); assay type: cell-based
Description: as §1, §2, §3, §4, §14, §15, §5, §6

[11] = tested on: Campylobacter fetus ATCC 27374; test: MIC in agar (agar dilution); assay type: cell-based
Description: as §1, §2, §3, §4, §14, §15, §5, §6

[12] = tested on: 4 Gram- bacterial strains; test: Agar diffusion test of undecyl alcohol; assay type: cell-based; conditions: absolute (0.05 ml)
Description: (§16) To ascertain whether the antimicrobial activity was due to the undecyl alcohol (a possible product from the hydrolysis of the undecyl esters, such as e.g. ST 722 and ST 712), different "in vitro" tests were performed to overcome the difficulties stemming from the insolubility of the undecyl alcohol in the assay medium.
(§17) To circumvent this problem, three different experimental approaches were chosen obtaining the following results:
2) Undecyl alcohol absolute (0.05 ml) in agar seeded with 4 Gram- bacterial strains (Agar diffusion test).

[13] = tested on: 4 Gram- bacterial strains and 1 Gram+ bacterial strain; test: Broth dilution test of undecyl alcohol; assay type: cell-based; conditions: emulsified in Tween 80, up to 400 mcg/ml
Description: as §16, §17
3) Undecyl alcohol emulsified in Tween 80 and tested up to the concentration of 400 mcg/ml in broth seeded with 4 Gram- bacterial strains and 1 Gram+ bacterial strain (Broth dilution test).

[14] = tested on: 7 Gram- bacterial strains; test: Agar dilution test of undecyl alcohol; assay type: cell-based; conditions: emulsified in Tween 80, up to 300 mcg/ml
Description: as §16, §17
1) Undecyl alcohol emulsified in Tween 80 and tested up to the concentration of 300 mcg/ml in agar seeded with 7 Gram- bacterial strains (Agar dilution test).

In the case of `CCCCCCCCCCCOC(=O)CC(C[N+](C)(C)C)OC(=O)C(C)C` [ST 712, Isobutyryl-L-Carnitine Undecyl Ester Chloride], the MIC ([1]; Helicobacter pylori, NCTC11637, I = inoculum of 1.0 × 10^5 cells/ml, read-out: MIC in agar) is reported as 3.12 µg/mL, the MIC in agar ([1]; II = inoculum of 1.0 × 10^6 cells/ml) is reported as 3.12 µg/mL and the “antibacterial activity for Helicobacter and Campylobacter” value ([1]; agar, Helicobacter and Campylobacter strains) is reported as “possess an antibacterial activity”. For the same compound, the MIC (Gram- bacterial strains) was 36.4 µg/mL, the MIC (Escherichia coli (76 F)) was 25 µg/mL and the MIC [2] was 50 µg/mL. For the same compound, the MIC (Escherichia coli (92 F)) was 25 µg/mL, the MIC [3] was 50 µg/mL and the MIC [4] was 25 µg/mL. For the same compound, the MIC [5] was 50 µg/mL, the MIC (Klebsiella oxytoca (552)) was 12.5 µg/mL and the MIC [6] was 25 µg/mL. For the same compound, the MIC (Proteus mirabilis (32)) was > 100 µg/mL, the MIC [7] was 12.5 µg/mL and the MIC (Proteus vulgaris (UM)) was 100 µg/mL. The mortality at 120 h [8] was 0%, the Symptoms (mice) was “NONE” and the MIC ([9]; I = inoculum of 1.0 × 10^3) was 25 µg/mL. For the same compound, the MIC ([9]; II = inoculum of 1.0 × 10^4) was 50 µg/mL, the MIC ([10]; Campylobacter coli, LI048, I = inoculum of 1.0 × 10^3) was 6.25 µg/mL and the MIC in agar ([10]; II = inoculum of 1.0 × 10^4) was 6.25 µg/mL. For the same compound, the MIC ([11]; Campylobacter fetus, ATCC27374, I = inoculum of 1.0 × 10^3) was 100 µg/mL and the MIC in agar ([11]; II = inoculum of 1.0 × 10^4) was 100 µg/mL.

In the case of `CCCCCCCCCCCO` [Undecyl alcohol, undecyl alcohol], the antibacterial activity [12] is reported as “no activity”, the antibacterial activity [13] is reported as “no activity” and the antibacterial activity [14] is reported as “no activity”.
